Among the data in paper PMC9865052, “Miltefosine and Nifuratel Combination: A Promising Therapy for the Treatment of Leishmania donovani Visceral Leishmaniasis” (International Journal of Molecular Sciences, 2023) are Ki values, retold here.

The target in this assay is T1, Trypanothione reductase (TR) (Leishmania donovani, UniProt P39050).
T1 construct: gene TPR; native enzyme in cell extracts of L. donovani axenic amastigotes
In words: DTNB-coupled colorimetric TR activity assay ([…] nm) in L. donovani cell extract; Lineweaver-Burk analysis. It is filed as biochemical.

T1 sequence (P39050 whole entry): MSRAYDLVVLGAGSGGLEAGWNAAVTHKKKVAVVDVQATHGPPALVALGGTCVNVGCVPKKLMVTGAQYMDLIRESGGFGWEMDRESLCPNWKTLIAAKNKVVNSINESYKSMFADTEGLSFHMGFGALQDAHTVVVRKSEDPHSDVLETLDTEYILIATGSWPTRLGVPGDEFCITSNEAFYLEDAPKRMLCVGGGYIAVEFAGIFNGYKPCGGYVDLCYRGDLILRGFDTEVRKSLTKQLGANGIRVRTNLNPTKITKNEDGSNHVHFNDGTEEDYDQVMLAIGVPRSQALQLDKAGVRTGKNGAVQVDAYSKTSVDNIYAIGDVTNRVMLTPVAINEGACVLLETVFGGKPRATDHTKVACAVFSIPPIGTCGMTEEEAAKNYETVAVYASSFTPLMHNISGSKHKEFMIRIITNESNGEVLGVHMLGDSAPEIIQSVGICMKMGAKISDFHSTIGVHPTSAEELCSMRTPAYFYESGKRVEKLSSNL

The molecule `CSCC1CN(/N=C/c2ccc([N+](=O)[O-])o2)C(=O)O1` (stereo not shown) [NFT, nifuratel] displayed a Ki of 3.15 ± 0.5 µM.

The term Ki denotes the dissociation constant of the complex between target and ligand, obtained from inhibition or displacement. High values mean weaker binding, low ones tighter binding.
